Measured values taken from patent US5545669A, “Anti-inflammatory compounds” (priority 1994, dated 1996).

Legend:
[1] = test system: human neutrophils; test: Assay (e): mobilization of labeled arachidonic acid into 1-ether phospholipids in intact cells; assay type: cell-based; details: non-stimulated human neutrophils, 2 hrs
Protocol: Measurement of the effect of CoA-IT inhibitors on the transfer of [^3 H]arachidonate into 1-ether phospholipids in non-stimulated inflammatory cells can be accomplished by general application of the following specific method. Human neutrophils were isolated and resuspended (5×10^7 /ml) in Hanks Balanced Salt Solution (HBSS; Gibco). [5,6,8,9,11,12,14,15-^3 H]-Arachidonic acid (100 Ci/mmol; New England Nuclear) complexed to 200 μl HBSS containing 0.25 mg/ml HSA was added to the cell suspension (1 μCi/ml). The cells were incubated with gentle shaking at 37° C. for 5 min. The reaction was terminated by the addition of 40 ml ice-cold HBSS containing HSA (0.25 mg/ml). The cells were then removed from the supernatant fluid by centrifugation (225 g, 8 min). Unincorporated [^3 H]-arachidonic acid was completely removed by two more washes of HBSS containing 0.25 mg/mi HSA. The neutrophils were resuspended in fresh buffer, exposed to various concentrations of a CoA-IT inhibitor or its vehicle and incubated without stimulation for 2 hrs. […] The phospholipid subclasses were separated by TLC in benzene/hexane/ethyl ether (50:45:4, v/v), located by image analysis (Bioscan) and the amount of radioactivity in each class was determined by zonal scraping and liquid scintillation counting.

[2] = test system: mouse bone marrow-derived mast cells; test: Assay (e): arachidonate content of cellular phospholipids; assay type: cell-based; details: 24-48 hours in culture
Protocol: The following is the method for assessing the ability of a compound to alter arachidonate content of cellular phospholipids, which can be generalized for any desired cell. Specifically, mouse bone marrow-derived mast cells are removed from culture and provided with exogenous [^3 H]arachidonic acid for 30 minutes. The labeled arachidonic acid which had not been incorporated into the cells is then removed by washing the cells 2 times with an albumin-containing buffer. At that point, the cells are treated with various concentrations of CoA-IT inhibitors and then placed back in culture for 24-48 hours. The phospholipids are extracted by the method of Bligh and Dyer [Can. J. Biochem. Physiol. (1959) 37,911-917] and phospholipids separated by normal phase HPLC by the method of Chilton [Methods Enzymol. (1990)187, 157-166]. The radioactive and mole quantities of arachidonate in complex lipids are determined. At this point, cellular lipid extracts are treated with KOH (0.5M) to remove fatty acids from complex lipids (phospholipids) and the quantities of arachidonate in these extracts can then be determined by various methods, including gas chromatography and mass spectrometry (Chilton [Methods Enzymol. (1990)187, 157-166]).

O=C(O)c1ccccc1Oc1ccc(C(F)(F)F)cc1NS(=O)(=O)c1cc(C(F)(F)F)cc(C(F)(F)F)c1 [Example 1, 2-[2-[3,5-Bis(trifluoromethyl)phenylsulfonamido]-4-trifluoromethylphenoxy]benzoic acid]
blocking the movement of arachidonic acid into 1-ether phospholipids [1]: positive activity
decreasing the arachidonic content [2]: positive activity
